Assay results published in ChEMBL document CHEMBL1667842, “Benzyl benzoates: New phlorizin analogs as mushroom tyrosinase inhibitors” (Bioorg Med Chem, 2011).
The source made the active and inactive calls. The calls are words filed in the database; no cut-off is given here.

Legend:
Tyrosinase [1] = biological target: T1, Tyrosinase (Agaricus bisporus, UniProt O42713)
T1 sequence (O42713 whole entry): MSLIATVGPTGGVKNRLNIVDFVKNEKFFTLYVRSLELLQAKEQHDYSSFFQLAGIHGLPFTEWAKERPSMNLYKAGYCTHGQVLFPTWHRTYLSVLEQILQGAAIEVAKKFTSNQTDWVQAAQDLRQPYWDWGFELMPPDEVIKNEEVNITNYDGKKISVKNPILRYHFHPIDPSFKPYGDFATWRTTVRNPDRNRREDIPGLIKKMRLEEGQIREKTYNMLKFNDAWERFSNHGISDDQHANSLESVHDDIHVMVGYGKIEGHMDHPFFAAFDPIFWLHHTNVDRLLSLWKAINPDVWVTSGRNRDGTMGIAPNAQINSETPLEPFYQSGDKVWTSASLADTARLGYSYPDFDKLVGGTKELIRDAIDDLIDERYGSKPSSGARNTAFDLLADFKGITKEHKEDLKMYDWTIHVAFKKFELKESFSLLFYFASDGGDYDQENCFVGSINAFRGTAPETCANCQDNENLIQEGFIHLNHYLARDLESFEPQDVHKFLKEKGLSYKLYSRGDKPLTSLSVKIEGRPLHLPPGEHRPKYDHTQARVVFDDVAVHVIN
Description: Inhibition of mushroom tyrosinase preincubated for 20 mins

[2] = biological target: T2, Tyrosinase (Agaricus bisporus) (UniProt O42713); assay: (§1) Competitive inhibition of mushroom tyrosinase by Lineweaver-Burk plot analysis
T2 sequence (whole entry): T1 sequence (O42713 whole entry)

Tyrosinase [3] = biological target: T1, Tyrosinase; assay: as §1

SMILES | IC50 (Tyrosinase [1]) [µM] | Activity [2] | Ki (Tyrosinase [3]) [nM]
O=C(OCc1ccccc1O)c1cc(O)c(O)c(O)c1 | > 100 | – | –
O=C(OCc1ccc(O)cc1)c1cc(O)cc(O)c1 [4-HYDROXYBENZYL 3,5-DIHYDROXYBENZOATE] | 5.84 | Active | –
O=C(OCc1cccc(O)c1)c1cc(O)cc(O)c1 | 6.11 | Active | –
O=C(OCc1cccc(O)c1)c1ccc(O)cc1O | 6.23 | Active | –
O=C(OCc1ccc(O)cc1)c1c(O)cc(O)cc1O [4-HYDROXYBENZYL 2,4,6-DIHYDROXYBENZOATE] | 8 | Active | –
O=C(OCc1ccc(O)cc1)c1ccc(O)cc1O | 4.69 | – | 1110
O=C(OCc1ccccc1O)c1cc(O)ccc1O | > 100 | – | –
O=C(OCc1ccc(O)cc1)c1cc(O)ccc1O [4-HYDROXYBENZYL 2,5-DIHYDROXYBENZOATE] | 12.3 | – | –

Other lines, results leading:

IC50 (Tyrosinase [1]) [µM] | Activity [2] | Ki (Tyrosinase [3]) [nM] | SMILES
11.5 | – | – | O=C(OCc1cccc(O)c1)c1cc(O)c(O)c(O)c1
24.4 | – | – | O=C(OCc1cccc(O)c1)c1cc(O)ccc1O [3-HYDROXYBENZYL 2,5-DIHYDROXYBENZOATE]
66.2 | – | – | O=C(OCc1ccccc1O)c1ccc(O)cc1O
25.7 | – | – | O=C(OCc1ccc(O)cc1)c1cc(O)c(O)c(O)c1 [4-HYDROXYBENZYL GALLATE]
19.9 | – | – | O=C(OCc1ccccc1O)c1c(O)cc(O)cc1O
19.9 | – | – | O=C(OCc1ccccc1O)c1cc(O)cc(O)c1
